Measurements reported in patent US12576167B2, “Gadolinium-based compound, method for producing same, and MRI contrast agent containing same” (KYUNGPOOK NATIONAL UNIVERSITY INDUSTRY-ACADEMIC COOPERATION …, priority 2020, dated 2026).

Legend:
[1] = Measurement of relaxivity (r1, r2), phantom in 3 T MRI; format: physicochemical; details: 0.0625-1 mM in tertiary distilled water, linear regression, in mM-1 s-1 (unit assumed)
Protocol: Relaxivity (r1, r2) of each of Gd-DO3A-Ga synthesized using the method according to Present Example 2, and Gadovist® and Dotarem® as commercial cyclic contrast agents as comparative groups.
Specifically, a phantom was prepared by diluting the gadolinium complex to 5 concentrations (0.0625, 0.125, 0.25, 0.5, 1 mM) using tertiary distilled water, and then T1 and T2 relaxation times thereof were measured in 3 T MRI. Thus, R (relaxivity=1/T) thereof at each of the concentrations was calculated and a result of the relaxivity of the gadolinium complex was obtained via linear regression analysis. (See following Table 1 and FIG. 5)

[2] = biological target: amyloid beta polymer (oligomeric Aβ) (Homo sapiens, UniProt P05067); assay: Phantom test for targeting ability toward amyloid beta polymer, 9.4 T MR; format: binding; details: amyloid beta polymer incubated with contrast agent at 37° C. for 24 hours, washed pellet, FIG. 7
Protocol: HFIP (221.5 μl) was added to amyloid beta (1 mg, 1 mM) to produce a mixture which in turn was shaken for 1 hour at room temperature using a shaker to remove preaggregation. Next, the amyloid beta from which the pre-aggregation was removed was dried. Then, DMSO (221.5 μl) was added thereto to adjust a concentration thereof to 1 mM. Then, a suspension thereof was produced using a mixer and a sonicator, and PBS (1×, pH 7.4, 878.5 μl) was added to the suspension to adjust a concentration of the suspension to 0.2 mM. Thereafter, the suspension was subjected to incubation for 4 days at 37° C. using a shaker. Then, amyloid beta polymer (oligomeric Aβ) that has been polymerized was dispensed by 200 μl. Then, a further mixed solution in which the compound Gd-DO3A-Ga was dissolved in PBS at a concentration of 2 mM was added thereto at 20 μl amount. A further mixed solution in which the commercial contrast agent (Gadovist®) was dissolved in PBS at a concentration of 2 mM was added thereto at 20 μl amount. Then, each of two resulting mixtures was incubated at 37° C. for 24 hours using a shaker. After completion of the incubation, a supernatant was removed therefrom via centrifugation, and then the amyloid beta polymer was washed with PBS, and then 200 μl of PBS:DMSO=9:1 solution was added to a pellet thereof to prepare MRI phantom samples. […]

Chain of amyloid beta polymer (oligomeric Aβ) (P05067 672-713 limits assumed): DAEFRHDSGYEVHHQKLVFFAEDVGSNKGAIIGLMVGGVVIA

Row | relaxivity r1 [1] | relaxivity r2 [1] | MR signal intensity (contrast enhancement effect) of phantom versus control incubated only with amyloid beta polymer [2] | Structure (SMILES)
1 | 3.40 ± 0.07 | 3.88 ± 0.16 |  | CNC[C@H](O)[C@@H](O)[C@H](O)[C@H](O)CO.O=C([O-])CN1CCN(CC(=O)[O-])CCN(CC(=O)O)CCN(CC(=O)[O-])CC1.[Gd+3] [Dotarem ®]
2 | 3.85 ± 0.09 | 4.87 ± 0.11 | no significant difference | O=C([O-])CN1CCN(CC(=O)[O-])CCN([C@H](CO)[C@H](O)CO)CCN(CC(=O)[O-])CC1.[Gd+3] (racemic) [Gadovist ®]
